Measurements reported in EP4563149A1, “LURBINECTEDIN, ECUBECTEDIN AND A RELATED COMPOUND FOR USE IN THE TREATMENT OF SKIN CANCERS” (Pharma Mar, S.A., priority 2023, dated 2025).
Where two headings read alike, the source gives them in different places.

What was measured:
melanoma cells [1] = assay: Apoptosis by flow cytometry (AnnexinV-APC); assay type: cell-based, human; conditions: IC50 concentrations, Annexin V-APC
Description: (§1) After 48h of incubation, cells were rinsed and incubated with AnnexinV-APC (BD Biosciences). Cell proliferation and apoptosis were detected on a BD LSRFortessaTM Flow Cytometer. Data were analyzed with FlowJo software. To define slow proliferating or apoptotic cells: it was considered that slow proliferating cells represented the 30% of cells with the highest concentration of CellTrace Violet signal in the DMSO control. […] For apoptotic cells, it was considered the 20% of cells with the highest signal of AnnexinV-APC in the DMSO control.

MM074^VemuR = assay: Cell viability assay (PrestoBlue), 72h; conditions: Homo sapiens
Description: Cells were grown at 37°C in 5% CO2 (10% for Hermes 3A) and were regularly checked for mycoplasma contamination. MM patient-derived short-term melanoma cultures (MM011, MM074, MM117, MM029, MM047, MM099) were grown in HAM-F10 (Gibco, Invitrogen) supplemented with 10% Fetal Calf Serum (FCS), 25 mM HEPES, 5.2 mM GLUTAMAX and penicillin-streptomycin. Melanoma cell lines 501mel and SKmel28 were grown in RPMI w/o HEPES (Gibco, Invitrogen) supplemented with 10% FCS and gentamycin. Vemurafenib-resistant cells (501melVemuR and MM074VemuR) were additionally supplemented with 1.5 µM of vemurafenib. Melanoma IGR cell lines (IGR37 and IGR39) were grown in RPMI w/o HEPES (Gibco, Invitrogen) supplemented with 15% FCS and gentamycin.
(§7) To determine the IC50 (half maximal inhibitory concentration) of these cells to various inhibitors, cell viability assays were performed.
(§8) After 72h of treatment with different concentrations of the compounds, cells were treated with PrestoBlue reagent according to the manufacturer's instructions. The absorbance per well was measured with a Cellinsight CX5 microplate reader. Data were analyzed using Prism9 statistical software.

[2] = test system: IGR-37 melanoma xenografts; conditions: 1.2 mg/kg intravenous
Description: (§2) Female athymic nu/nu mice (Harlan Laboratories Models, S.L. Barcelona, Spain or Envigo, Spain) were utilized for all experiments. Animal were housed in individually ventilated cages Sealsafe® Plus, Techmplast S.P.A.), up to ten per cage on a 12-hour light-dark cycle at 21-23 °C and 40-60 % humidity. Mice were allowed free access to irradiated standard rodent diet (Tecklad 2914C) and sterilized water. Animals were acclimated for at least 5 days prior to tumor implantation with a tumor cell suspension.
(§3) The cell line used are: • 501mel • IGR-37 • SK-Mel-28 • WM-266-4 • LOX-IMVI • 501mel^Vemur
(§4) In xenograft studies with cell lines: • Tumour volume was calculated using the equation […], where a: length (longest diameter) and b: width (shortest diameter) were measured in mm by using digital caliper (Fowler Sylvac, S235PAT). Tumour dimensions and body weights were recorded 2-3 times per week starting from the first day of treatment. • When tumors reached ca. 150-250 mm^3, tumour bearing animals (N = 8-10/group) were randomly allocated into the treatment groups, based on body weight and tumour measurements by using NewLab Oncology Software (version 2.25.06.00). • Comparison between median tumour volume of treated and placebo groups was used for evaluation of the antitumoural efficacy. • Animals were euthanized when their tumours reached ca. 1,500 mm^3 and/or severe necrosis was seen.
(§5) Treatments producing >20 % lethality and/or 20% net body weight loss were considered toxic.
(§6) In these experiments, PM14 and Compound IA, as well as placebo, were intravenously administered once per week for 3 consecutive weeks, on days 0, 7 and 14, whenever it was possible.
Table 5. Tumour volume evaluation in IGR-37 melanoma xenografts with PM14 and Compound IA and placebo.

MM099 = assay: Cell viability assay (PrestoBlue), 72h; conditions: Homo sapiens
Description: (§9) Cells were grown at 37°C in 5% CO2 (10% for Hermes 3A) and were regularly checked for mycoplasma contamination. […] Melanoma IGR cell lines (IGR37 and IGR39) were grown in RPMI w/o HEPES (Gibco, Invitrogen) supplemented with 15% FCS and gentamycin.
as §7, §8

[3] = test system: melanoma cell cultures or cell lines; assay: Clonogenic assay; assay type: cell-based, human; conditions: 48h at IC50 concentrations, then 10 days without drug
Description: Based on the cell viability assays conducted above, the efficacy of lurbinectedin, PM14 or Compound IA on melanoma cell proliferation was investigated. Initially, a clonogenic assay was performed. Cells were drug-treated at IC50 concentrations during 48h before seeding 1×10^3 or 2×10^3 cells in 6-well plates without drug, wherein they grew for 10 days to allow for colony formation. Afterwards, cells were fixed for 10min with 4% formaldehyde solution, washed once with PBS and stained with Crystal Violet solution 0.2% for 15 min. The wells were finally washed twice with deionized water, air dried, scanned and analyzed with Fiji software to count the number of colonies.

[4] = test system: xenografts with various melanoma cell lines; conditions: different xenografts, 1.2 mg/kg intravenous once per week for 3 weeks
Description: as §2, §3
as §4, with “seen. […]” for “seen.”

[5] = test system: RPB1 (RNA pol II elongation subunit); assay: Immunoblotting of RPB1 in 501mel; assay type: cell-based, human; conditions: 24h at 5×IC50
Description: Cells were washed once with cold PBS, rinsed with a cell scraper, pelleted and resuspended in LSDB 0.5M buffer (0.5M KCI, 50mM Tris HCl pH 7.9, 20% Glycerol, 1% NP40, 1mM DTT, PIC). Afterwards cells were fully disrupted with 3 cycles of heat shock in liquid nitrogen and 37°C water bath and centrifugated 15min at 14,000rpm to pellet cell debris. Ten micrograms of extract were loaded on SDS-PAGE before transfer to nitro-cellulose membranes and immunoblotting.

501 mel^Vemur cell line = conditions: 1.2 mg/kg intravenous
Description: as §2, §3, §4, §5, §6

melanoma cells [6] = assay: Cell proliferation by CellTrace Violet flow cytometry; assay type: cell-based, human; conditions: IC50 concentrations, compared to DMSO
Description: as §1

[7] = test system: LOX-IMVI melanoma xenografts; conditions: 1.2 mg/kg intravenous
Description: as §2, §3, §4, §5, §6
Tumour volume evaluation in LOX-IMVI melanoma xenografts with PM14 and Compound IA and placebo.

[8] = test system: 501mel melanoma xenografts; conditions: 1.2 mg/kg intravenous
Description: as §2, §3, §4, §5, §6
Table 4. Tumour volume evaluation in 501mel melanoma xenografts with PM14 and Compound IA and placebo.

IGR37 = assay: Cell viability assay (PrestoBlue), 72h, last line of Table 2; conditions: Homo sapiens, IGR-37, 72 h
Description: as §9, §7, §8

Structure (SMILES): COc1c(C)cc2c(c1O)[C@@H]1[C@@H]3[C@@H]4SC[C@]5(N[C@H](CO)Cc6c5[nH]c5ccccc65)C(=O)OC[C@@H](c5c6c(c(C)c(OC(C)=O)c54)OCO6)N3[C@@H](O)[C@H](C2)N1C [PM14, ecubectedin]
- apoptosis (melanoma cells [1]): induction of apoptosis
- IC50 (MM074^VemuR): 1.63 nM
- Median Tumour Volume ([2]; days 0, 7 and 14, day 0): 150.4 mm^3
- Median Tumour Volume ([2]; days 0, 7 and 14, day 2): 216.6 mm^3
- Median Tumour Volume ([2]; days 0, 7 and 14, day 4): 326.3 mm^3
- Median Tumour Volume ([2]; days 0, 7 and 14, day 7): 544.5 mm^3
- Median Tumour Volume ([2]; days 0, 7 and 14, day 9): 704.9 mm^3
- Median Tumour Volume ([2]; days 0, 7 and 14, day 11): 821.6 mm^3
- Median Tumour Volume ([2]; days 0, 7 and 14, day 14): 1,127.4 mm^3
- Median Tumour Volume ([2]; days 0, 7 and 14, day 16): 1,351.7 mm^3
- Median Tumour Volume ([2]; days 0, 7 and 14, day 18): 1,594 mm^3
- IC50 (MM099): 1.41 nM
- colony formation (number of colonies) [3]: significant impact
- tumor volume compared to the placebo [4]: reduction of the volume tumor
- RPB1 (RNA pol II elongation subunit) degradation [5]: pronounced
- Median Tumour Volume (501 mel^Vemur cell line; days 0, 7 and 14, day 0): 147.9 mm^3
- Median Tumour Volume (501 mel^Vemur cell line; days 0, 7 and 14, day 2): 225.2 mm^3
- Median Tumour Volume (501 mel^Vemur cell line; days 0, 7 and 14, day 4): 248.4 mm^3
- Median Tumour Volume (501 mel^Vemur cell line; days 0, 7 and 14, day 7): 330.4 mm^3
- Median Tumour Volume (501 mel^Vemur cell line; days 0, 7 and 14, day 9): 361 mm^3
- Median Tumour Volume (501 mel^Vemur cell line; days 0, 7 and 14, day 11): 389.7 mm^3
- Median Tumour Volume (501 mel^Vemur cell line; days 0, 7 and 14, day 14): 407.1 mm^3
- Median Tumour Volume (501 mel^Vemur cell line; days 0, 7 and 14, day 16): 436.4 mm^3
- Median Tumour Volume (501 mel^Vemur cell line; days 0, 7 and 14, day 18): 502 mm^3
- Median Tumour Volume (501 mel^Vemur cell line; days 0, 7 and 14, day 21): 555.5 mm^3
- Median Tumour Volume (501 mel^Vemur cell line; days 0, 7 and 14, day 23): 674.2 mm^3
- Median Tumour Volume (501 mel^Vemur cell line; days 0, 7 and 14, day 25): 757.7 mm^3
- Median Tumour Volume (501 mel^Vemur cell line; days 0, 7 and 14, day 28): 839.8 mm^3
- Median Tumour Volume (501 mel^Vemur cell line; days 0, 7 and 14, day 30): 882.9 mm^3
- Median Tumour Volume (501 mel^Vemur cell line; days 0, 7 and 14, day 35): 863.3 mm^3
- Median Tumour Volume (501 mel^Vemur cell line; days 0, 7 and 14, day 37): 871.8 mm^3
- Median Tumour Volume (501 mel^Vemur cell line; days 0, 7 and 14, day 39): 948.6 mm^3
- Median Tumour Volume (501 mel^Vemur cell line; days 0, 7 and 14, day 42): 1020 mm^3
- Median Tumour Volume (501 mel^Vemur cell line; days 0, 7 and 14, day 44): 1,295.1 mm^3
- Median Tumour Volume (501 mel^Vemur cell line; days 0, 7 and 14, day 46): 1,582.2 mm^3
- melanoma cell proliferation (melanoma cells [6]): significant inhibition
- Median Tumour Volume ([7]; days 0, 7 and 14, day 0): 185 mm^3
- Median Tumour Volume ([7]; days 0, 7 and 14, day 2): 173.7 mm^3
- Median Tumour Volume ([7]; days 0, 7 and 14, day 4): 103.2 mm^3
- Median Tumour Volume ([7]; days 0, 7 and 14, day 7): 73.8 mm^3
- Median Tumour Volume ([7]; days 0, 7 and 14, day 9): 68.5 mm^3
- Median Tumour Volume ([7]; days 0, 7 and 14, day 11): 51.2 mm^3
- Median Tumour Volume ([7]; days 0, 7 and 14, day 14): 37.5 mm^3
- Median Tumour Volume ([7]; days 0, 7 and 14, day 16): 40.8 mm^3
- Median Tumour Volume ([7]; days 0, 7 and 14, day 18): 35.3 mm^3
- Median Tumour Volume ([7]; days 0, 7 and 14, day 21): 43.5 mm^3
- Median Tumour Volume ([7]; days 0, 7 and 14, day 23): 55.5 mm^3
- Median Tumour Volume ([7]; days 0, 7 and 14, day 25): 68.5 mm^3
- Median Tumour Volume ([7]; days 0, 7 and 14, day 28): 233.4 mm^3
- Median Tumour Volume ([7]; days 0, 7 and 14, day 30): 547.3 mm^3
- Median Tumour Volume ([7]; days 0, 7 and 14, day 32): 1,044 mm^3
- Median Tumour Volume ([7]; days 0, 7 and 14, day 35): 1,565 mm^3
- Median Tumour Volume ([7]; days 0, 7 and 14, day 37): 1,610.4 mm^3
- Median Tumour Volume ([8]; days 0, 7 and 14, day 0): 158.8 mm^3
- Median Tumour Volume ([8]; days 0, 7 and 14, day 3): 215.5 mm^3
- Median Tumour Volume ([8]; days 0, 7 and 14, day 5): 252.3 mm^3
- Median Tumour Volume ([8]; days 0, 7 and 14, day 7): 372.7 mm^3
- Median Tumour Volume ([8]; days 0, 7 and 14, day 10): 503.6 mm^3
- Median Tumour Volume ([8]; days 0, 7 and 14, day 12): 599.4 mm^3
- Median Tumour Volume ([8]; days 0, 7 and 14, day 14): 797.2 mm^3
- Median Tumour Volume ([8]; days 0, 7 and 14, day 17): 950 mm^3
- Median Tumour Volume ([8]; days 0, 7 and 14, day 19): 1,113.5 mm^3
- Median Tumour Volume ([8]; days 0, 7 and 14, day 21): 1,309.8 mm^3
- Median Tumour Volume ([8]; days 0, 7 and 14, day 24): 1,530.7 mm^3
- IC50 (IGR37): 0.78 nM
